The source of these data is patent US10479789B2, “Pyrido[1,2-A]pyrimidone analog, crystal form thereof, intermediate thereof and preparation method therefor” (Chia Tai Tianqing Pharmaceutical Group Co., Ltd., priority 2015, dated 2019).

For one experiment, the target named is T1, PI3K (p110α) (Homo sapiens, UniProt P42336).
T1 construct: purchased Millipore 14-602-K
Description: ADP-Glo Assay I, in vitro enzyme activity. The class given is biochemical. To be noted: 0.33 nM PI3Kalpha. Here is the method:
The test compounds were diluted with a three-fold concentration gradient, and 10 concentrations (10000 nM to 0.5 nM) were obtained in total.
50 nL of the test compounds of the present invention was transferred to a reaction plate (PerkinElmer #6007299), and added with 3 μL of an enzyme/substrate mixture (0.33 nM PI3Kalpha, Millipore #14-602-K/166.5 μM PIP2); after incubation for 20 min, 2 μL of an ATP solution (100 μM) was added to initiate the reaction; after 2 hours of reaction at room temperature, the kinase reaction was stopped by adding 5 μL ADP-Glo reagent, followed by incubation at room temperature for 60 min, allowing the remaining unreacted ATP to be completely digested; and the resulting solution was added with 10 μL of a kinase detection reagent and incubated at room temperature for 40 min, and then the […] was read on Envision. PIP2, ATP, the ADP-Glo reagent, and the kinase assay reagents are all from an ADP-Glo Kinase Assay Kit (Promega #V1792).
IC50 was calculated using the standard 4-parameter fitting method (Model 205, XL-fit, iDBS).
(ADP-Glo turns the ADP formed in a reaction into a luminescent signal.)

In the next experiment the target is PI3Kα (Homo sapiens, UniProt P42336). The experiment can be described thus: ADP-Glo Assay II, PI3Kα. It counts as biochemical. The settings on record: read-out: IC50 for inhibition of PI3Kα activity. How it is done:
(§1) 1) The compound was diluted using Echo from Labcyte company, 50 nL of the compound was transferred into an assay plate, and centrifuged at a speed of 1000 rpm for 10 sec.
(§2) 2) A kinase/lipid substrate mixed solution and a kinase reaction buffer/lipid substrate mixed solution were prepared; the kinase/lipid substrate mixed solution was added into columns 3-24 of the assay plate, 3 μL per well; the kinase reaction buffer/lipid substrate mixed solution was added into columns 1-2 of the assay plat, 3 μL per well; and the plate was centrifuged at a speed of 1000 rpm for 10 sec.
(§3) 3) An ATP solution was prepared, and added into the assay plate, 2 μL per well; the plate was centrifuged at a speed of 1000 rpm for 10 sec, shaken and mixed in 2nd gear mode on a plate shaker for 1 min, further centrifuged at a speed of 1000 rpm for 10 sec, and incubated for 120 min at 23° C. […]
(§4) 5) A kinase detection reagent was prepared, added into the assay plate, 10 μL per well; the plate was centrifuged at a speed of 1000 rpm for 10 sec, shaken and mixed in 2nd gear mode on a plate shaker for 1 min, further centrifuged at a speed of 1000 rpm for 10 sec, incubated for 30 min at 23° C.; and then read on the multi-marker detector Envision.
(§5) IC50 results were analyzed by XLfit5 (Formula 205) of IDBS company.

In the next experiment the target is PI3Kδ (Homo sapiens, UniProt O00329). The experiment can be described thus: ADP-Glo Assay II, PI3Kδ. It counts as biochemical. The settings on record: read-out: IC50 for inhibition of PI3Kδ activity. How it is done:
as §1, §2, §3, §4, §5

In experiment [1] the test system is human gastric cancer ST-02-0013. The experiment can be described thus: In vivo pharmacodynamics, subcutaneous xenograft tumor model of human gastric cancer ST-02-0013. Further details: species or system BALB/c nude mice. Here is the method:
The studies were conducted to examine if the test drugs have in vivo efficacy in the human colon cancer CO-04-0032 animal model and the gastric cancer ST-02-0013 animal model. The descriptions about the animal feeding, feed ingredients, experimental observation, experimental indexes, experimental termination, as well as data analysis in the tests were as follows:
Animal Grouping: The animals were weighed and the tumor volume was measured prior to administration. The animals were randomly grouped according to tumor volume (randomized block design).
Experimental Indexes: The experimental indexes were used to examine whether tumor growth is inhibited, delayed or cured. Tumor diameter was measured twice a week with a vernier caliper. The tumor volume was calculated by the formula: V=0.5a×b^2, wherein a and b represent the long diameter and short diameter of a tumor, respectively. Tumor growth inhibition (TGI) of a compound was evaluated with T-C (day) and T/C (%). […]
Data Analysis: One-way ANOVA was used for comparison of three or more groups. […] All data was analyzed using SPSS 17.0. p<0.05 indicated a significant difference. […]
Background: Xenograft models place foreign cells or tissue in a host animal.

SMILES strings stand for the structures.

T1 sequence (P42336 whole entry): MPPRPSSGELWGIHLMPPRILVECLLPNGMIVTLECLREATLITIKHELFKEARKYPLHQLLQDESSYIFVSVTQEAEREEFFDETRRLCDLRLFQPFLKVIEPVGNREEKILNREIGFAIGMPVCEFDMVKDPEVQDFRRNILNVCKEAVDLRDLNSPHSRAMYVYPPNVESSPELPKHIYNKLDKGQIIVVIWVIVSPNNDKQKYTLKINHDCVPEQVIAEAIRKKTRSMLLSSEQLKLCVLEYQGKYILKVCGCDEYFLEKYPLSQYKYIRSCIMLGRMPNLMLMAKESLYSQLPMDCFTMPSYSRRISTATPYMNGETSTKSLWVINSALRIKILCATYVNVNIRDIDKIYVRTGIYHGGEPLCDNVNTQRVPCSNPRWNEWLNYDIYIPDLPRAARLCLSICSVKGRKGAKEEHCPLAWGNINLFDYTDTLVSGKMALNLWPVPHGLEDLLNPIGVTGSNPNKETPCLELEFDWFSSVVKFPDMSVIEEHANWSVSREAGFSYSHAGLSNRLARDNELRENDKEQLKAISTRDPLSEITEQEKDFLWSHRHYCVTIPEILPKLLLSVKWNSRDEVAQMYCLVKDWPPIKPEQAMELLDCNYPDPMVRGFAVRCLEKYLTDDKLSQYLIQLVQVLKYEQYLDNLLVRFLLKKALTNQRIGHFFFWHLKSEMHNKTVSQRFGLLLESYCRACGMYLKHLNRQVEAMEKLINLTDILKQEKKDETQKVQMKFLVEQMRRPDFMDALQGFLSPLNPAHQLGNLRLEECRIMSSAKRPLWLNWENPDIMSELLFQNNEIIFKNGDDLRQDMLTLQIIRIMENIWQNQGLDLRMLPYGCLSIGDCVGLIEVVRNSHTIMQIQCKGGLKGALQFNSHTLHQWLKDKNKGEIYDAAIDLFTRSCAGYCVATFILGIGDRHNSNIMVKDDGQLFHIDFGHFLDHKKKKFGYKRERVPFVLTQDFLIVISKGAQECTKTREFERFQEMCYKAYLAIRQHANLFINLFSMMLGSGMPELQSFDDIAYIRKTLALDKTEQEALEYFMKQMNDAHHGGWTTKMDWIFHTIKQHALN
T1 sequence (P27986 whole entry partner): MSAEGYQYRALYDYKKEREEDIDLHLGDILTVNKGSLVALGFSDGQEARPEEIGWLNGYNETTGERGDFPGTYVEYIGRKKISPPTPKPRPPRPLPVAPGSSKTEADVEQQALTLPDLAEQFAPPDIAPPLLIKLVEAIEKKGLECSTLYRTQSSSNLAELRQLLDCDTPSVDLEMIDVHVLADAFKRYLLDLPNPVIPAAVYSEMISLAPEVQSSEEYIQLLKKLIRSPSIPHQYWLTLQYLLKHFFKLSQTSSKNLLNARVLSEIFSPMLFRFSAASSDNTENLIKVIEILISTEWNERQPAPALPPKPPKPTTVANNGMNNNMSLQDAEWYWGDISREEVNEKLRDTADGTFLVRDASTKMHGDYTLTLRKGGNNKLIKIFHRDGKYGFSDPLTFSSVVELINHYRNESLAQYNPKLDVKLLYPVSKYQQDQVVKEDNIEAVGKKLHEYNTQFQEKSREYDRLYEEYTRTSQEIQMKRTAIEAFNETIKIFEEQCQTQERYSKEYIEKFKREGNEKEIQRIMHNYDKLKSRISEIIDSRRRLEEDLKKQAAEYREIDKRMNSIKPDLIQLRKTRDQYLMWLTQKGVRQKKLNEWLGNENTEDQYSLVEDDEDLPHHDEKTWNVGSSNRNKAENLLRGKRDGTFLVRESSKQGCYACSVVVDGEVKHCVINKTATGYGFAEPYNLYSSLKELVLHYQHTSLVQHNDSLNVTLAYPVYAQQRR
PI3Kα, sequence (P42336 whole entry): as the sequence (P42336 whole entry) above
PI3Kα, sequence (P27986 whole entry partner): as the sequence (P27986 whole entry partner) above
PI3Kδ, sequence (O00329 whole entry): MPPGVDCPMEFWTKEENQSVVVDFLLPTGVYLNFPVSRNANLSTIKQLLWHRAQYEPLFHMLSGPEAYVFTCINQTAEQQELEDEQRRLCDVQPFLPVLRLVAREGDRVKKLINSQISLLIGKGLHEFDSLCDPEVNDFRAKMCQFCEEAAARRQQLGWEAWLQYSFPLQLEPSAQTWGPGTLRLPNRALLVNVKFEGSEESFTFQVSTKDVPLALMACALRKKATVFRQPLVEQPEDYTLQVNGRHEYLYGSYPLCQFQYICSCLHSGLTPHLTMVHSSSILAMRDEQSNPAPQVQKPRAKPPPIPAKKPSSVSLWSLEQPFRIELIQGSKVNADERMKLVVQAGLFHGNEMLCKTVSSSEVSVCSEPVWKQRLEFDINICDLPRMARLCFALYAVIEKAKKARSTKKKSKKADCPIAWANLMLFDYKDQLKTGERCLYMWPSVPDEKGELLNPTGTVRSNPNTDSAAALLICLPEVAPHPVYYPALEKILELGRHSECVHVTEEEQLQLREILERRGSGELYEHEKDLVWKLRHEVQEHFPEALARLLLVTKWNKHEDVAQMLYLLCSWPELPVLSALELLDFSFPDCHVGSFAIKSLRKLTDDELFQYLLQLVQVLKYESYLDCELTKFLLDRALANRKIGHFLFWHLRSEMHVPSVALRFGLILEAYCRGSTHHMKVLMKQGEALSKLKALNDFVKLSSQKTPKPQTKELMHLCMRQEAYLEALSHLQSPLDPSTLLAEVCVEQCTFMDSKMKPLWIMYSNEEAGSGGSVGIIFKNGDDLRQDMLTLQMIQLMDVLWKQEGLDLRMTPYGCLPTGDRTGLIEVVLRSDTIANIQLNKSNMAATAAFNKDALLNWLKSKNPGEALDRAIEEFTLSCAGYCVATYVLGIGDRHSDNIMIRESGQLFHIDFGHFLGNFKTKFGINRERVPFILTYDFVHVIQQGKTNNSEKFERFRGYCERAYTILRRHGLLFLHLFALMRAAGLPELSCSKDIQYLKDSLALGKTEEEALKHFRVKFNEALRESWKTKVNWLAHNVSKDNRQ
PI3Kδ, sequence (P27986 whole entry partner): as the sequence (P27986 whole entry partner) above

Take `COc1ncc(-c2ccc3ncc(OCCN(C)C)c(=O)n3c2)cc1NS(=O)(=O)c1ccc(F)cc1Cl` [Compound 1]: the values for the IC50 against PI3K (p110α), at PI3Kα and at PI3Kδ were at most 1000 pM, 600 ± 200 pM and 500 ± 100 pM, respectively. For the same molecule, in experiment [1] (from day 15 to day 30 of the administration, ST-02-0013), the “increase in tumor volume” value is “almost no increase in tumor volume”. Moreover, in experiment [1] (gastric cancer ST-02-0013), the “anti-tumor activity compared to the positive control drug BKM120” value was “more excellent anti-tumor activity”.
